Measured values: patent publication US9169254B2, “Spiroimidazolone derivative” (Chugai Seiyaku Kabushiki Kaisha, priority 2009, dated 2015)

Target: T1, human PTH1 receptor (Homo sapiens, UniProt Q03431)
T1 sequence (Q03431 27-593): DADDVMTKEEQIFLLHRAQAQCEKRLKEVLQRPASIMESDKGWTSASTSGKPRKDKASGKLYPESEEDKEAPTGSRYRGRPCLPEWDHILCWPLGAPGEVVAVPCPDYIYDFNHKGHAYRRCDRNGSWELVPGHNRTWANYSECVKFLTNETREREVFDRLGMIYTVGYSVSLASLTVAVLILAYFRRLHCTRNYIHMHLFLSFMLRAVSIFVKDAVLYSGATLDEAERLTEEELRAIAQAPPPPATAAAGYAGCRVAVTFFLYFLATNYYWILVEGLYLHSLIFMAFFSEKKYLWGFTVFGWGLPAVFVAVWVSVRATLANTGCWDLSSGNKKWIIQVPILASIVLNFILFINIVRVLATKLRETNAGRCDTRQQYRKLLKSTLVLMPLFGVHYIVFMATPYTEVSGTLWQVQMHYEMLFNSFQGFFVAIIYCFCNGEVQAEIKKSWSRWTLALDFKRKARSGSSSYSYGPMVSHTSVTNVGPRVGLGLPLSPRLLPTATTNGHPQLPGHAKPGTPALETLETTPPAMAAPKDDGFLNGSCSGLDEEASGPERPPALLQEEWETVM
Assay: In vitro cAMP signal activity in HKRK-B7 cells (LLC-PK1 cells overexpressing the human PTH1 receptor)
Format: cell-based
Conditions: 0.1 µM

Compound	cAMP production activity (%)
Cc1cc(C(=O)N(C)C)ccc1CCS(=O)(=O)N1CCC2(CC1)N=C(Nc1ccc(C(F)(F)F)cc1)NC2=O [Compound 1396, 3,N,N-Trimethyl-4-{2-[4-oxo-2-(4-trifluoromethyl-phenylamino)-1,3,8-triaza-spiro[4.5]dec-1-ene-8-sulfonyl]-ethyl}-benzamide]	133%

Same assay, conditions: HKRK-B7 cells; compound at 1×10^−3 M; cAMP produced as percentage of that produced by hPTH(1-34) at 100 nM

cAMP production activity (%)	Compound
102%	Cc1cc(C(=O)N2CCC(O)(CF)CC2)cc(C)c1CCS(=O)(=O)N1CCC2(CC1)N=C(C1CCC(CCC(F)(F)F)CC1)NC2=O (stereo not drawn) [Compound 1381, 8-{2-[4-(4-fluoromethyl-4-hydroxy-piperidine-1-carbonyl)-2,6-dimethyl-phenyl]-ethanesulfonyl}-2-[4-(3,3,3-trifluoro-propyl)-cyclohexyl]-1,3,8-triaza-spiro[4.5]dec-1-en-4-one]
93%	Cc1cc(C(=O)N2CCC(C)(O)CC2)cc(C)c1CCS(=O)(=O)N1CCC2(CC1)N=C(C1CCC(C)CC1)NC2=O (stereo not drawn) [Compound 1382, 8-{2-[4-(4-hydroxy-4-methyl-piperidine-1-carbonyl)-2,6-dimethyl-phenyl]-ethanesulfonyl}-2-(4-methyl-cyclohexyl)-1,3,8-triaza-spiro[4.5]dec-1-en-4-one]
96%	Cc1cc(C(=O)N2CCC(O)(CF)CC2)cc(C)c1CCS(=O)(=O)N1CCC2(CC1)N=C(C1CCC(C)CC1)NC2=O (stereo not drawn) [Compound 1383, 8-{2-[4-(4-fluoromethyl-4-hydroxy-piperidine-1-carbonyl)-2,6-dimethyl-phenyl]-ethanesulfonyl}-2-(4-methyl-cyclohexyl)-1,3,8-triaza-spiro[4.5]dec-1-en-4-one]
78%	Cc1cc(C(=O)N2CCC(OC[C@H](O)CO)CC2)cc(C)c1CCS(=O)(=O)N1CCC2(CC1)N=C(C1CCC(CCC(F)(F)F)CC1)NC2=O (stereo partly drawn) [Compound 1384, 8-(2-{4-[4-((R)-2,3-dihydroxy-propoxy)-piperidine-1-carbonyl]-2,6-dimethyl-phenyl}-ethanesulfonyl)-2-[4-(3,3,3-trifluoro-propyl)-cyclohexyl]-1,3,8-triaza-spiro[4.5]dec-1-en-4-one]
92%	Cc1cc(C(=O)NN)cc(C)c1CCS(=O)(=O)N1CCC2(CC1)N=C(C1CCC(CCC(F)(F)F)CC1)NC2=O (stereo not drawn) [Compound 1385, 3,5-dimethyl-4-(2-{4-oxo-2-[4-(3,3,3-trifluoro-propyl)-cyclohexyl]-1,3,8-triaza-spiro[4.5]dec-1-ene-8-sulfonyl}-ethyl)-benzoic acid hydrazide]
92%	Cc1cc(C(=O)N2CCCN2)cc(C)c1CCS(=O)(=O)N1CCC2(CC1)N=C(C1CCC(CCC(F)(F)F)CC1)NC2=O (stereo not drawn) [Compound 1386, 8-{2-[2,6-dimethyl-4-(pyrazolidine-1-carbonyl)-phenyl]-ethanesulfonyl}-2-[4-(3,3,3-trifluoro-propyl)-cyclohexyl]-1,3,8-triaza-spiro[4.5]dec-1-en-4-one]
68%	Cc1cc(CC(=O)N(C)C)ccc1CCS(=O)(=O)N1CCC2(CC1)N=C(C1CCC(C)CC1)NC2=O (stereo not drawn) [Compound 1387, N,N-dimethyl-2-(3-methyl-4-{2-[2-(4-methyl-cyclohexyl)-4-oxo-1,3,8-triaza-spiro[4.5]dec-1-ene-8-sulfonyl]-ethyl}-phenyl)-acetamide]
59%	CONC(=O)Cc1ccc(CCS(=O)(=O)N2CCC3(CC2)N=C(C2CCC(C)CC2)NC3=O)c(C)c1 (stereo not drawn) [Compound 1388, N-methoxy-2-(3-methyl-4-{2-[2-(4-methyl-cyclohexyl)-4-oxo-1,3,8-triaza-spiro[4.5]dec-1-ene-8-sulfonyl]-ethyl}-phenyl)-acetamide]
67%	Cc1cc(CN(C)C(N)=O)cc(C)c1CCS(=O)(=O)N1CCC2(CC1)N=C(C1CCC(CCC(F)(F)F)CC1)NC2=O (stereo not drawn) [Compound 1389, 1-[3,5-dimethyl-4-(2-{4-oxo-2-[4-(3,3,3-trifluoro-propyl)-cyclohexyl]-1,3,8-triaza-spiro[4.5]dec-1-ene-8-sulfonyl}-ethyl)-benzyl]-1-methyl-urea]
69%	Cc1cc(CN(C)C(N)=O)cc(C)c1CCS(=O)(=O)N1CCC2(CC1)N=C(C1CCC(C)CC1)NC2=O (stereo not drawn) [Compound 1390, 1-(3,5-dimethyl-4-{2-[2-(4-methyl-cyclohexyl)-4-oxo-1,3,8-triaza-spiro[4.5]dec-1-ene-8-sulfonyl]-ethyl}-benzyl)-1-methyl-urea]
116%	[2H]C([2H])([2H])N(C(N)=O)c1cc(C)c(CCS(=O)(=O)N2CCC3(CC2)N=C(c2ccc(F)c(C(F)(F)F)c2)NC3=O)c(C)c1 [Compound 1391, 1-(4-{2-[2-(4-fluoro-3-trifluoromethyl-phenyl)-4-oxo-1,3,8-triaza-spiro[4.5]dec-1-ene-8-sulfonyl]-ethyl}-3,5-dimethyl-phenyl)-1-[1,1,1-^2H3]methyl-urea]
89%	O=C1NC(C2CCCCC2)=NC12CCN(S(=O)(=O)CCc1cccc3c1ccn3C[C@H](O)[C@@H](O)CO)CC2 [Compound 1392, 2-Cyclohexyl-8-{2-[1-((2S,3S)-2,3,4-trihydroxy-butyl)-1H-indol-4-yl]-ethanesulfonyl}-1,3,8-triaza-spiro[4.5]dec-1-en-4-one]
84%	O=C1NC(C2CCCCC2)=NC12CCN(S(=O)(=O)CCc1cccc3c1ccn3C[C@H](O)[C@@H](O)COCc1ccccc1)CC2 [Compound 1393, 8-{2-[1-((2S,3S)-4-benzyloxy-2,3-dihydroxy-butyl)-1H-indol-4-yl]-ethanesulfonyl}-2-cyclohexyl-1,3,8-triaza-spiro[4.5]dec-1-en-4-one]
82%	CC(=O)NCc1ccc(CCS(=O)(=O)N2CCC3(CC2)N=C(C2CCC(CCC(F)(F)F)CC2)NC3=O)c(C)c1 (stereo not drawn) [Compound 1394, N-[3-Methyl-4-(2-{4-oxo-2-[4-(3,3,3-trifluoro-propyl)-cyclohexyl]-1,3,8-triaza-spiro[4.5]dec-1-ene-8-sulfonyl}-ethyl)-benzyl]-acetamide]
68%	Cc1cc(C(=O)N(C)C)ccc1CCS(=O)(=O)N1CCC2(CC1)N=C(Nc1cccc(C(F)(F)F)c1)NC2=O [Compound 1395, 3,N,N-Trimethyl-4-{2-[4-oxo-2-(3-trifluoromethyl-phenylamino)-1,3,8-triaza-spiro[4.5]dec-1-ene-8-sulfonyl]-ethyl}-benzamide]
24%	Cc1cc(C(=O)N(C)C)ccc1CCS(=O)(=O)N1CCC2(CC1)N=C(N(C)c1ccccc1)NC2=O [Compound 1397, 3,N,N-trimethyl-4-{2-[2-(methyl-phenyl-amino)-4-oxo-1,3,8-triaza-spiro[4.5]dec-1-ene-8-sulfonyl]-ethyl}-benzamide]
77%	Cc1cc(C(=O)N(C)C)ccc1CCS(=O)(=O)N1CCC2(CC1)N=C(N(C)Cc1ccccc1)NC2=O [Compound 1398, 4-{2-[2-(benzyl-methyl-amino)-4-oxo-1,3,8-triaza-spiro[4.5]dec-1-ene-8-sulfonyl]-ethyl}-3,N,N-trimethyl-benzamide]
20%	Cc1cc(C(=O)N(C)C)ccc1CCS(=O)(=O)N1CCC2(CC1)N=C(NCC1CCCCC1)NC2=O [Compound 1399, 4-{2-[2-(cyclohexylmethyl-amino)-4-oxo-1,3,8-triaza-spiro[4.5]dec-1-ene-8-sulfonyl]-ethyl}-3,N,N-trimethyl-benzamide]
49%	Cc1cc(C(=O)N(C)C)ccc1CCS(=O)(=O)N1CCC2(CC1)N=C(N(C)c1ccc(C(F)(F)F)cc1)NC2=O [Compound 1400, 3,N,N-trimethyl-4-(2-{2-[methyl-(4-trifluoromethyl-phenyl)-amino]-4-oxo-1,3,8-triaza-spiro[4.5]dec-1-ene-8-sulfonyl}-ethyl)-benzamide]
73%	CC(=O)Nc1ccc(CCS(=O)(=O)N2CCC3(CC2)N=C(Nc2ccc(C(F)(F)F)cc2)NC3=O)c(C)c1 [Compound 1401, N-(3-Methyl-4-{2-[4-oxo-2-(4-trifluoromethyl-phenylamino)-1,3,8-triaza-spiro[4.5]dec-1-ene-8-sulfonyl]-ethyl}-phenyl)-acetamide]
69%	CC(=O)Nc1ccc(CCS(=O)(=O)N2CCC3(CC2)N=C(Nc2cccc(C(F)(F)F)c2)NC3=O)c(C)c1 [Compound 1402, N-(3-methyl-4-{2-[4-oxo-2-(3-trifluoromethyl-phenylamino)-1,3,8-triaza-spiro[4.5]dec-1-ene-8-sulfonyl]-ethyl}-phenyl)-acetamide]
66%	CCCCC1CCN(C2=NC3(CCN(S(=O)(=O)CCc4ccc(C(=O)N(C)C)cc4C)CC3)C(=O)N2)CC1 [Compound 1403, 4-{2-[2-(4-Butyl-piperidin-1-yl)-4-oxo-1,3,8-triaza-spiro[4.5]dec-1-ene-8-sulfonyl]-ethyl}-3,N,N-trimethyl-benzamide]
64%	CCCCC1CCC(NC2=NC3(CCN(S(=O)(=O)CCc4ccc(C(=O)N(C)C)cc4C)CC3)C(=O)N2)CC1 (stereo not drawn) [Compound 1404, 4-{2-[2-(4-butyl-cyclohexylamino)-4-oxo-1,3,8-triaza-spiro[4.5]dec-1-ene-8-sulfonyl]-ethyl}-3,N,N-trimethyl-benzamide]
